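Compound exposure: 48 hours, 5 concentrations, 96-well plates. TGI: total growth inhibition.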
Experiments:
Assay in all cases: NCI tumour cell line growth inhibition, 48 h
[1] = test system: T-47D breast
[2] = test system: SN12C renal
[3] = test system: OVCAR-3 ovarian
[4] = test system: SK-MEL-5 melanoma
[5] = test system: U251 CNS
[6] = test system: RPMI-8226 leukemia
[7] = test system: SF-268 CNS
[8] = test system: MDA-MB-435
[9] = test system: MCF7 breast
[10] = test system: SW-620 colon
[11] = test system: BT-549 breast
[12] = test system: SNB-75 CNS
[13] = test system: CAKI-1 renal
[14] = test system: HOP-92 NSCLC
[15] = test system: CCRF-CEM leukemia
[16] = test system: NCI-H226 lung
[17] = test system: PC-3 prostate
[18] = test system: OVCAR-8 ovarian
[19] = test system: UACC-257 melanoma
[20] = test system: SK-OV-3 ovarian
[21] = test system: HL-60(TB) leukemia
[22] = test system: NCI-H522 lung
[23] = test system: SNB-19 CNS
[24] = test system: DU-145 prostate
[25] = test system: MDA-MB-231 breast
[26] = test system: OVCAR-5 ovarian
[27] = test system: NCI-H23 lung
[28] = test system: HCT-15 colon
[29] = test system: UO-31 renal
[30] = test system: MDA-N
[31] = test system: SK-MEL-2 melanoma
[32] = test system: MOLT-4 leukemia
[33] = test system: MALME-3M melanoma
[34] = test system: SR leukemia
[35] = test system: NCI-H460 lung
[36] = test system: HT29 colon
[37] = test system: SK-MEL-28 melanoma
[38] = test system: KM12 colon
[39] = test system: K-562 leukemia
[40] = test system: HOP-62 NSCLC
[41] = test system: HCC-2998 colon
[42] = test system: COLO 205 colon
[43] = test system: A498 renal
[44] = test system: EKVX NSCLC
[45] = test system: SF-539 CNS
[46] = test system: 786-0 renal
[47] = test system: SF-295 CNS
[48] = test system: IGROV1 ovarian
[49] = test system: UACC-62 melanoma
[50] = test system: ACHN renal
[51] = test system: HS 578T breast
[52] = test system: A549 NSCLC
[53] = test system: TK-10 renal
[54] = test system: LOX IMVI melanoma
[55] = test system: HCT-116 colon
[56] = test system: M14 melanoma
[57] = test system: RXF 393 renal

`COc1cccc(C2c3cc4c(cc3OC(NNc3ccccc3)C2C)OCO4)c1O` (configuration not stated) gave a TGI [1] of 31.1 µM, a TGI [2] of 23.5 µM and a TGI [3] of 8.36 µM. It also gave a TGI [4] of 20 µM, a TGI [5] of 18.7 µM and a TGI [6] of 22.6 µM. The TGI [7] was 42.4 µM, the TGI [8] was 12.5 µM and the TGI [9] was 19.6 µM. It also gave a TGI [10] of 25.5 µM, a TGI [11] of 20.4 µM and a TGI [12] of 47.4 µM. The TGI [13] was 23.3 µM, the TGI [14] was 28.5 µM and the TGI [15] was 21.7 µM. It also gave a TGI [16] of 29.6 µM, a TGI [17] of 19.1 µM and a TGI [18] of 21.1 µM. The TGI [19] was 17.7 µM, the TGI [20] was 58.4 µM and the TGI [21] was 12.9 µM. It also gave a TGI [22] of 14.4 µM, a TGI [23] of 32.4 µM and a TGI [24] of 18.9 µM. The TGI [25] was 27.9 µM, the TGI [26] was 27.1 µM and the TGI [27] was 28 µM. It also gave a TGI [28] of 12 µM, a TGI [29] of 16.6 µM and a TGI [30] of 8.59 µM. For the same compound, the TGI [31] was 25.7 µM, the TGI [32] was 23.5 µM and the TGI [33] was 19.1 µM. It also gave a TGI [34] of 6.28 µM, a TGI [35] of 15.5 µM and a TGI [36] of 23.3 µM. The TGI [37] was 24.7 µM, the TGI [38] was 18.3 µM and the TGI [39] was 11.9 µM. The TGI [40] was 8.14 µM, the TGI [41] was 6.47 µM and the TGI [42] was 23.8 µM. It also gave a TGI [43] of 28.2 µM, a TGI [44] of 22.1 µM and a TGI [45] of 9.87 µM. For the same compound, the TGI [46] was 23.2 µM, the TGI [47] was 10.5 µM and the TGI [48] was 25.5 µM. For the same compound, the TGI [49] was 17.9 µM, the TGI [50] was 15.5 µM and the TGI [51] was 34.5 µM. For the same compound, the TGI [52] was 19.2 µM, the TGI [53] was 17.3 µM and the TGI [54] was 27.5 µM. The TGI [55] was 18 µM, the TGI [56] was 19.3 µM and the TGI [57] was 29.6 µM.
